Laboratory results as given in article PMC3448830 (Bioorganic & medicinal chemistry, 2012).
One block for each compound: values may come before it.

Legend:
[1] = following chronic administration; cited from earlier work
GABA-AT = GABA-AT (Sus scrofa, UniProt P80147); experiment: Substrate activity for GABA-AT; assay type: biochemical, pig; conditions: for Km: substrate, Hanes-Woolf plots, pH 8.5, room temperature, 16 h
Sequence of GABA-AT (P80147 29-500): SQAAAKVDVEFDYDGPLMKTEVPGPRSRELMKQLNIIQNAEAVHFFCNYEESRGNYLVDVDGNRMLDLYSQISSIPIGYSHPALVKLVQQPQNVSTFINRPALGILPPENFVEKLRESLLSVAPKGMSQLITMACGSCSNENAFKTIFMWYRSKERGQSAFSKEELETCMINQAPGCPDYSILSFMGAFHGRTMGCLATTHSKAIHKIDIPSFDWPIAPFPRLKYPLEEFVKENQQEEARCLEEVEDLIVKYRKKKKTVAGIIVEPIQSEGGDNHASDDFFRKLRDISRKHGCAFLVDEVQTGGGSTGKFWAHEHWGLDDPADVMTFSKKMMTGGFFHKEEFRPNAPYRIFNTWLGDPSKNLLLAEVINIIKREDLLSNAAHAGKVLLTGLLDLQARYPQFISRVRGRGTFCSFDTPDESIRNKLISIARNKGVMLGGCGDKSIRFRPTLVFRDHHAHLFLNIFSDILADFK

Compound: C=CC(N)CCC(=O)O (centres unmarked) [Compound 1, 4-aminohex-5-enoic acid]
patients exhibiting irreversible abnormalities in peripherial vision [1]: 25–50%

Compound: Cl.NCc1ccc(C(=O)O)o1 [Compound 4a, 5-(Aminomethyl)furan-2-carboxylic acid hydrochloride]
kcat/Km (GABA-AT; substrate efficiency): highest kcat/Km value

Km (GABA-AT): much higher
Compound: Cl.NCc1ccc(C(=O)O)s1 [Compound 4b, 5-(Aminomethyl)thiophene-2-carboxylic acid hydrochloride]

Km (GABA-AT): much higher
Compound: Cl.NCc1ccc(C(=O)O)[nH]1 [Compound 4c]

Compound: Cl.NCc1coc(C(=O)O)c1 [Compound 5a, 4-(Aminomethyl)furan-2-carboxylic acid hydrochloride]
Km, fold lower than that of GABA (GABA-AT; relative to GABA): approximately 4 fold

Compound: Cl.NCc1cscc1C(=O)O [Compound 6b, 4-(Aminomethyl)thiophene-3-carboxylic acid hydrochloride]
substrate activity (transamination) (GABA-AT): Transamination was observed | Km (GABA-AT): > 10 mM

^Hk/^Dk for substrate turnover (kinetic isotope effect) (GABA-AT; [D2]-5a evaluated alongside unlabeled 5a): 1.22 ± 0.07
Compound: Cl.[2H]C([2H])(N)c1coc(C(=O)O)c1 [[D2]-5a]
